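Where inhibition never reached the appropriate level, the endpoint shown equals the highest concentration tested. Otherwise, values were interpolated linearly from a five-concentration, 48-hour dose response in 96-well plates. Here, GI50 denotes the concentration required for 50% inhibition of growth.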 The source made the active and inactive calls. Rule as the data show it: active = GI50 up to about 1.1 µM and inactive = higher.
Assays:
Experiment in all cases: NCI anticancer screen, dose series, 48 h
A549 = system: A549
CAKI-1 = system: CAKI-1
CCRF-CEM = system: CCRF-CEM
COLO 205 = system: COLO 205
DLD-1 = system: DLD-1
DMS-114 = system: DMS-114
DMS-273 = system: DMS-273
EKVX = system: EKVX
HCC 2998 = system: HCC 2998
HCT-116 = system: HCT-116
HCT-15 = system: HCT-15
HL-60 = system: HL-60
HOP-18 = system: HOP-18
HOP-62 = system: HOP-62
HOP-92 = system: HOP-92
HT-29 = system: HT-29
IGROV-1 = system: IGROV-1
K562 = system: K562
KM-20L2 = system: KM-20L2
KM12 = system: KM12
LOX IMVI = system: LOX IMVI
MCF7 = system: MCF7
MOLT-4 = system: MOLT-4
Malme-3M = system: Malme-3M
NCI-H226 = system: NCI-H226
NCI-H23 = system: NCI-H23
NCI-H460 = system: NCI-H460
NCI-H522 = system: NCI-H522
NCI/ADR-RES = system: NCI/ADR-RES
OVCAR-3 = system: OVCAR-3
OVCAR-4 = system: OVCAR-4
OVCAR-5 = system: OVCAR-5
OVCAR-8 = system: OVCAR-8
RPMI-8226 = system: RPMI-8226
RXF 393 = system: RXF 393
SF-268 = system: SF-268
SF-295 = system: SF-295
SF-539 = system: SF-539
SK-MEL-28 = system: SK-MEL-28
SK-MEL-2 = system: SK-MEL-2
SK-MEL-5 = system: SK-MEL-5
SK-OV-3 = system: SK-OV-3
SN12C = system: SN12C
SNB-19 = system: SNB-19
SNB-75 = system: SNB-75
SNB-78 = system: SNB-78
SW-620 = system: SW-620
U-251 = system: U-251
UACC-257 = system: UACC-257
UACC-62 = system: UACC-62
UO-31 = system: UO-31
XF498 = system: XF498

## C/C(=N\NS(=O)(=O)c1ccccc1)c1ccccc1
A549
  GI50: > 100 µM (inactive)
CAKI-1
  GI50: > 100 µM (inactive)
CCRF-CEM
  GI50: > 100 µM (inactive)
COLO 205
  GI50: > 100 µM (inactive)
DLD-1
  GI50: > 100 µM (inactive)
DMS-114
  GI50: > 100 µM (inactive)
DMS-273
  GI50: > 100 µM (inactive)
EKVX
  GI50: > 100 µM (inactive)
HCC 2998
  GI50: > 100 µM (inactive)
HCT-116
  GI50: > 100 µM (inactive)
HCT-15
  GI50: > 100 µM
HL-60
  GI50: > 100 µM (inactive)
HOP-18
  GI50: > 100 µM (inactive)
HOP-62
  GI50: > 100 µM (inactive)
HOP-92
  GI50: > 100 µM (inactive)
HT-29
  GI50: > 100 µM (inactive)
IGROV-1
  GI50: > 100 µM (inactive)
K562
  GI50: > 100 µM (inactive)
KM-20L2
  GI50: > 100 µM (inactive)
KM12
  GI50: > 100 µM (inactive)
LOX IMVI
  GI50: > 100 µM (inactive)
MCF7
  GI50: > 94 µM (inactive)
MOLT-4
  GI50: > 100 µM (inactive)
Malme-3M
  GI50: > 100 µM (inactive)
NCI-H226
  GI50: > 80.4 µM (inactive)
NCI-H23
  GI50: > 100 µM (inactive)
NCI-H460
  GI50: > 100 µM (inactive)
NCI-H522
  GI50: > 100 µM (inactive)
NCI/ADR-RES
  GI50: > 100 µM (inactive)
OVCAR-3
  GI50: > 100 µM (inactive)
OVCAR-4
  GI50: > 100 µM (inactive)
OVCAR-5
  GI50: > 100 µM (inactive)
OVCAR-8
  GI50: > 100 µM (inactive)
RPMI-8226
  GI50: > 100 µM (inactive)
RXF 393
  GI50: > 100 µM (inactive)
SF-268
  GI50: > 100 µM (inactive)
SF-295
  GI50: > 100 µM (inactive)
SF-539
  GI50: > 100 µM (inactive)
SK-MEL-28
  GI50: > 100 µM (inactive)
SK-MEL-2
  GI50: > 100 µM (inactive)
SK-MEL-5
  GI50: > 100 µM (inactive)
SK-OV-3
  GI50: > 100 µM (inactive)
SN12C
  GI50: > 100 µM (inactive)
SNB-19
  GI50: > 100 µM (inactive)
SNB-75
  GI50: > 100 µM (inactive)
SNB-78
  GI50: > 100 µM (inactive)
SW-620
  GI50: > 100 µM (inactive)
U-251
  GI50: > 100 µM (inactive)
UACC-257
  GI50: > 100 µM (inactive)
UACC-62
  GI50: > 100 µM (inactive)
UO-31
  GI50: > 100 µM (inactive)
XF498
  GI50: > 100 µM (inactive)
